Measurements as given in PubChem BioAssay (NCI).
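Tested at 5 concentrations; 48 h exposure; 96-well plates; endpoints linearly interpolated, else capped at highest concentration. TGI marks complete inhibition of growth.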

Experiments:
Assay in all cases: NCI anticancer screen, dose series, 48 h
NCI-H522 lung = test system: NCI-H522 lung
SF-295 CNS = test system: SF-295 CNS
786-0 renal = test system: 786-0 renal
SK-MEL-2 melanoma = test system: SK-MEL-2 melanoma
A549 NSCLC = test system: A549 NSCLC
ACHN renal = test system: ACHN renal
RXF-631 renal = test system: RXF-631 renal
TK-10 renal = test system: TK-10 renal
HL-60(TB) leukemia = test system: HL-60(TB) leukemia
DMS 114 small cell lung = test system: DMS 114 small cell lung
HCT-116 colon = test system: HCT-116 colon
HOP-18 NSCLC = test system: HOP-18 NSCLC
UACC-257 melanoma = test system: UACC-257 melanoma
SF-268 CNS = test system: SF-268 CNS
RXF 393 renal = test system: RXF 393 renal
M19-MEL melanoma = test system: M19-MEL melanoma
SK-MEL-28 melanoma = test system: SK-MEL-28 melanoma
RPMI-8226 leukemia = test system: RPMI-8226 leukemia
HOP-62 NSCLC = test system: HOP-62 NSCLC
COLO 205 colon = test system: COLO 205 colon
HOP-92 NSCLC = test system: HOP-92 NSCLC
SNB-75 CNS = test system: SNB-75 CNS
A498 renal = test system: A498 renal
NCI-H23 lung = test system: NCI-H23 lung
SF-539 CNS = test system: SF-539 CNS
IGROV1 ovarian = test system: IGROV1 ovarian
HCT-15 colon = test system: HCT-15 colon
SK-OV-3 ovarian = test system: SK-OV-3 ovarian
SNB-19 CNS = test system: SNB-19 CNS
OVCAR-5 ovarian = test system: OVCAR-5 ovarian
CCRF-CEM leukemia = test system: CCRF-CEM leukemia
KM20L2 colon = test system: KM20L2 colon
NCI-H460 lung = test system: NCI-H460 lung
DMS 273 small cell lung = test system: DMS 273 small cell lung
LXFL 529 NSCLC = test system: LXFL 529 NSCLC
M14 melanoma = test system: M14 melanoma
MALME-3M melanoma = test system: MALME-3M melanoma
DLD-1 colon = test system: DLD-1 colon
SNB-78 CNS = test system: SNB-78 CNS
UO-31 renal = test system: UO-31 renal
SW-620 colon = test system: SW-620 colon
MOLT-4 leukemia = test system: MOLT-4 leukemia
U251 CNS = test system: U251 CNS
UACC-62 melanoma = test system: UACC-62 melanoma
HCC-2998 colon = test system: HCC-2998 colon
OVCAR-4 ovarian = test system: OVCAR-4 ovarian
KM12 colon = test system: KM12 colon
SN12C renal = test system: SN12C renal
OVCAR-3 ovarian = test system: OVCAR-3 ovarian
EKVX NSCLC = test system: EKVX NSCLC
LOX IMVI melanoma = test system: LOX IMVI melanoma
OVCAR-8 ovarian = test system: OVCAR-8 ovarian
K-562 leukemia = test system: K-562 leukemia
NCI-H226 lung = test system: NCI-H226 lung
CAKI-1 renal = test system: CAKI-1 renal
SR leukemia = test system: SR leukemia
SK-MEL-5 melanoma = test system: SK-MEL-5 melanoma
HT29 colon = test system: HT29 colon

Compound `C[N+]1(C)C/C(=C/c2ccc(F)cc2)C(=O)/C(=C\c2ccc(F)cc2)C1` has a TGI (NCI-H522 lung) of 36.9 µM, a TGI (SF-295 CNS) of over 100 µM and a TGI (786-0 renal) of over 100 µM. It also gave a TGI (SK-MEL-2 melanoma) of over 100 µM, a TGI (A549 NSCLC) of over 100 µM and a TGI (ACHN renal) of over 100 µM. It also gave a TGI (RXF-631 renal) of over 100 µM, a TGI (TK-10 renal) of over 100 µM and a TGI (HL-60(TB) leukemia) of 50.3 µM. For the same compound, the TGI (DMS 114 small cell lung) was over 100 µM, the TGI (HCT-116 colon) was over 100 µM and the TGI (HOP-18 NSCLC) was over 100 µM. The TGI (UACC-257 melanoma) was over 100 µM, the TGI (SF-268 CNS) was over 100 µM and the TGI (RXF 393 renal) was over 100 µM. The TGI (M19-MEL melanoma) was over 100 µM, the TGI (SK-MEL-28 melanoma) was 40.8 µM and the TGI (RPMI-8226 leukemia) was 57.8 µM. The TGI (HOP-62 NSCLC) was over 100 µM, the TGI (COLO 205 colon) was over 100 µM and the TGI (HOP-92 NSCLC) was over 100 µM. For the same compound, the TGI (SNB-75 CNS) was over 100 µM, the TGI (A498 renal) was over 100 µM and the TGI (NCI-H23 lung) was over 100 µM. For the same compound, the TGI (SF-539 CNS) was over 100 µM, the TGI (IGROV1 ovarian) was 70.1 µM and the TGI (HCT-15 colon) was over 100 µM. The TGI (SK-OV-3 ovarian) was over 100 µM, the TGI (SNB-19 CNS) was over 100 µM and the TGI (OVCAR-5 ovarian) was over 100 µM. It also gave a TGI (CCRF-CEM leukemia) of 68.5 µM, a TGI (KM20L2 colon) of over 100 µM and a TGI (NCI-H460 lung) of over 100 µM. It also gave a TGI (DMS 273 small cell lung) of 86.2 µM, a TGI (LXFL 529 NSCLC) of over 100 µM and a TGI (M14 melanoma) of over 100 µM. For the same compound, the TGI (MALME-3M melanoma) was over 100 µM, the TGI (DLD-1 colon) was over 100 µM and the TGI (SNB-78 CNS) was over 100 µM. For the same compound, the TGI (UO-31 renal) was over 100 µM, the TGI (SW-620 colon) was over 100 µM and the TGI (MOLT-4 leukemia) was 45.5 µM. The TGI (U251 CNS) was 42.7 µM, the TGI (UACC-62 melanoma) was 33.5 µM and the TGI (HCC-2998 colon) was over 100 µM. For the same compound, the TGI (OVCAR-4 ovarian) was over 100 µM, the TGI (KM12 colon) was over 100 µM and the TGI (SN12C renal) was 11.9 µM. It also gave a TGI (OVCAR-3 ovarian) of over 100 µM, a TGI (EKVX NSCLC) of over 100 µM and a TGI (LOX IMVI melanoma) of over 100 µM. The TGI (OVCAR-8 ovarian) was over 100 µM and the TGI (K-562 leukemia) was over 100 µM.

`O=c1c2ccccc2nc(/C=C(\O)c2ccccc2)n1-c1ccccc1Cl` gave a TGI (NCI-H522 lung) of over 100 µM, a TGI (SF-295 CNS) of over 100 µM and a TGI (786-0 renal) of over 100 µM. The TGI (SK-MEL-2 melanoma) was over 100 µM, the TGI (A549 NSCLC) was over 100 µM and the TGI (ACHN renal) was over 100 µM. The TGI (NCI-H226 lung) was over 100 µM, the TGI (RXF-631 renal) was over 100 µM and the TGI (TK-10 renal) was over 100 µM. For the same compound, the TGI (HL-60(TB) leukemia) was over 100 µM, the TGI (DMS 114 small cell lung) was over 100 µM and the TGI (HCT-116 colon) was over 100 µM. It also gave a TGI (HOP-18 NSCLC) of over 100 µM, a TGI (UACC-257 melanoma) of over 100 µM and a TGI (CAKI-1 renal) of over 100 µM. It also gave a TGI (SF-268 CNS) of over 100 µM, a TGI (SR leukemia) of over 100 µM and a TGI (RXF 393 renal) of over 100 µM. For the same compound, the TGI (M19-MEL melanoma) was over 100 µM, the TGI (SK-MEL-28 melanoma) was over 100 µM and the TGI (HOP-62 NSCLC) was over 100 µM. For the same compound, the TGI (COLO 205 colon) was over 100 µM, the TGI (HOP-92 NSCLC) was over 100 µM and the TGI (SNB-75 CNS) was over 100 µM. The TGI (SK-MEL-5 melanoma) was over 100 µM, the TGI (A498 renal) was over 100 µM and the TGI (NCI-H23 lung) was over 100 µM. For the same compound, the TGI (SF-539 CNS) was over 100 µM, the TGI (HT29 colon) was over 100 µM and the TGI (IGROV1 ovarian) was over 100 µM. It also gave a TGI (HCT-15 colon) of over 100 µM, a TGI (SK-OV-3 ovarian) of over 100 µM and a TGI (SNB-19 CNS) of over 100 µM. For the same compound, the TGI (OVCAR-5 ovarian) was over 100 µM, the TGI (CCRF-CEM leukemia) was over 100 µM and the TGI (KM20L2 colon) was over 100 µM. It also gave a TGI (NCI-H460 lung) of over 100 µM, a TGI (DMS 273 small cell lung) of over 100 µM and a TGI (LXFL 529 NSCLC) of over 100 µM. It also gave a TGI (M14 melanoma) of over 100 µM, a TGI (MALME-3M melanoma) of over 100 µM and a TGI (DLD-1 colon) of over 100 µM. For the same compound, the TGI (SNB-78 CNS) was over 100 µM, the TGI (UO-31 renal) was over 100 µM and the TGI (SW-620 colon) was over 100 µM. For the same compound, the TGI (MOLT-4 leukemia) was over 100 µM, the TGI (U251 CNS) was over 100 µM and the TGI (UACC-62 melanoma) was over 100 µM. For the same compound, the TGI (HCC-2998 colon) was over 100 µM, the TGI (OVCAR-4 ovarian) was over 100 µM and the TGI (KM12 colon) was over 100 µM. It also gave a TGI (SN12C renal) of over 100 µM, a TGI (OVCAR-3 ovarian) of over 100 µM and a TGI (EKVX NSCLC) of over 100 µM. The TGI (LOX IMVI melanoma) was over 100 µM, the TGI (OVCAR-8 ovarian) was over 100 µM and the TGI (K-562 leukemia) was over 100 µM.
